Tested on: B16-F10 melanoma cells
Assay: B16-F10 melanoma experimental metastasis model, lung tumor nodules
Assay type: in vivo, BDF1 mice
Details: mice, tumor cells i.v.; p.o. 120 mg/kg/dosing; lungs on day 14
Experimental: The B16-F10 melanoma experimental metastasis model was studied following the method of Fidler. Cells were harvested by trypsinization and washed once with serum-containing medium and three times with cold PBS and then kept on ice. Mice were injected in the tail vein with a suspension of tumor cells (2×10^5 cells/0.1 ml of PBS). Animals were dosed with compounds p.o. at −1 hr, +5 hrs, 23 hrs and 29 hrs relative to the time of the cell injection at the first two days (day 0, 1). After that the animals were dosed once a day in the morning. Compounds were administered as a suspension in 1% carboxymethyl cellulose (Wako, Japan) at a dose of 120 mg/kg/dosing. Vehicle alone was administered to the control group. On day 14, the lung of the mice were removed after sacrificing the animals and the numbers of the tumor nodules were counted manually after fixing with Bouin's solution (2% picric acid in destilled water:10% formaldehyde neutral buffer solution:acetic acid=15:5:1). In this test a decrease in the number of tumor nodules of 47% compared to the vehicle alone was determined for the compound of Example 68.

## COc1ccc(CN(CC(=O)NO)S(=O)(=O)c2ccc(OCCCCl)cc2)cc1 [Example 68, 2-{[4-(3-chloro-propoxy)-benzenesulfonyl]-(4-methoxy-benzyl)amino}-N-hydroxy-acetamide]
  decrease in the number of tumor nodules compared to the vehicle alone: 47%

Reference: patent US8034810B2, “Arylsulfonamido-substituted hydroxamic acid derivatives” (Novartis AG, priority 1999, dated 2011)
